Source: EP4707280A1, “1,4-CINEOLE DERIVATIVE AND INTERMEDIATE THEREOF, HERBICIDE CONTAINING SAID DERIVATIVE AS ACTIVE INGREDIENT, METHOD FOR USING HERBICIDE, AND METHOD FOR PREPARING AGROCHEMICAL COMPOSITION” (HOKKO CHEMICAL INDUSTRY CO., LTD., priority 2023, dated 2024)

What was measured:
Assay type in all cases: in vivo
Echinochloa crus-galli [1] = experiment: Test Example 3: herbicidal effect test by soil application in upland field; conditions: Echinochloa crus-galli, 120 g per 10 ares, sprayed one day after sowing, 14 days after application, read-out: weed inhibition rate
In short: (§1)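 Weed inhibition (%) was assessed 14 days after treatment, in duplicate per concentration group. Seeds had been mixed into the upper 1 cm of upland alluvial loam, and the soil surface was sprayed one day later with the diluted emulsifiable concentrate at 120 g active ingredient per 10 ares.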

Digitaria ciliaris [2] = experiment: as above; conditions: Digitaria ciliaris, 120 g per 10 ares, sprayed one day after sowing, 14 days after application, read-out: weed inhibition rate
In short: as §1

[3] = system: Echinochloa crus-galli var. formosensis; experiment: Test Example 2: herbicidal effect test by application during growth period of paddy rice; conditions: Echinochloa crus-galli; 120 g per 10 ares; applied seven days after sowing, flooded pots; 14 days after application; read-out: weed inhibition rate
In short: (§2)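 Flooded paddy pot test, greenhouse. Seeds 30/species, 0–1 cm depth, water ~3 cm. EC diluted in water, dropper-applied 7 d post-sowing at 120 g a.i./10 a. Inhibition rate (%) read 14 d after treatment; n=2.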

Monochoria vaginalis [4] = experiment: as above; conditions: Pontederia vaginalis; 120 g per 10 ares; applied seven days after sowing, flooded pots; 14 days after application; read-out: weed inhibition rate
In short: as §2

Scirpus juncoides = experiment: as above; conditions: Schoenoplectiella juncoides; 120 g per 10 ares; applied seven days after sowing, flooded pots; 14 days after application; read-out: weed inhibition rate
In short: as §2

Echinochloa crus-galli [5] = experiment: Test Example 8: herbicidal effect test by stem and leaf treatment in upland field (low dose); conditions: Echinochloa crus-galli; 7.5 g per 10 ares; sprayed seven days after sowing, upland soil; 14 days after application; read-out: weed inhibition rate
Digitaria ciliaris [6] = experiment: as above; conditions: Digitaria ciliaris; 7.5 g per 10 ares; sprayed seven days after sowing, upland soil; 14 days after application; read-out: weed inhibition rate
Monochoria vaginalis [7] = experiment: Test Example 1: herbicidal effect test by soil application in paddy rice; conditions: 120 g active ingredient per 10 ares, applied immediately after sowing, flooded pots, 14 days after application; for pest or weed control at 1200 g/ha: Pontederia vaginalis, soil, 336 h, read-out: weed inhibition rate
In short: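 Inhibition rate (%) read 14 days after treatment, duplicate pots. Water-diluted emulsifiable concentrate was applied by dropper at 120 g active ingredient/10 ares right after sowing. Seeds (30 per species, 0–1 cm deep) went into puddled paddy soil kept flooded at about 3 cm in a greenhouse.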

Monochoria vaginalis [8] = experiment: Test Example 6: herbicidal effect test by application during growth period of paddy rice (low dose); conditions: Pontederia vaginalis; 7.5 g per 10 ares; applied seven days after sowing, flooded pots; 14 days after application; read-out: weed inhibition rate
In short: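 Puddled, fertilised paddy soil was sown with 30 seeds per species and flooded to about 3 cm. After 7 days in a glass greenhouse, the diluted emulsifiable concentrate went into the water by dropper at 7.5 g/10 a. Effect scored at 14 days.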

CC(C)CC1C[C@]2(C)O[C@@]1(C(C)C)C[C@H]2OCc1ccccc1F (stereo partly drawn) [1-915, (1S,2R,4R)-2-((2-fluorobenzyl)oxy)-5-isobutyl-4-isopropyl-1-methyl-7-oxabicyclo[2.2.1]heptane]
≥ 80%: inhibition at 1200 g/ha (Echinochloa crus-galli [1]) | inhibition at 1200 g/ha (Digitaria ciliaris [2]) | inhibition at 1200 g/ha [3] | inhibition at 1200 g/ha (Monochoria vaginalis [4]) | inhibition at 1200 g/ha (Scirpus juncoides) | inhibition at 75 g/ha (Echinochloa crus-galli [5]) | inhibition at 75 g/ha (Digitaria ciliaris [6]) | pest or weed control at 1200 g/ha (Monochoria vaginalis [7])

CC(C)[C@]12C[C@@H](OCc3ccccc3F)[C@](C)(C[C@@H]1OS(=O)(=O)C(F)(F)F)O2 [1-525, (1R,2S,4S,5R)-5-((2-fluorobenzyl)oxy)-1-isopropyl-4-methyl-7-oxabicyclo[2.2.1]heptan-2-yl trifluoromethanesulfonate]
≥ 80%: inhibition at 1200 g/ha (Echinochloa crus-galli [1]) | inhibition at 1200 g/ha (Digitaria ciliaris [2]) | inhibition at 1200 g/ha [3] | inhibition at 75 g/ha (Echinochloa crus-galli [5]) | inhibition at 75 g/ha (Digitaria ciliaris [6]) | pest or weed control at 1200 g/ha (Monochoria vaginalis [7])

CCCO[C@H]1C[C@]2(C)O[C@@]1(C(C)C)C[C@H]2OCc1ccccc1F [1-1604, (1S,2R,4R,SS)-2-[(2-fluorophenyl)methoxy]-1-methyl-4-isopropyl-5-propoxy-7-oxabicyclo[2.2.1]heptane]
≥ 80%: inhibition at 1200 g/ha (Echinochloa crus-galli [1]) | inhibition at 1200 g/ha (Digitaria ciliaris [2]) | inhibition at 1200 g/ha [3] | inhibition at 1200 g/ha (Scirpus juncoides) | inhibition at 75 g/ha (Echinochloa crus-galli [5]) | inhibition at 75 g/ha (Digitaria ciliaris [6]) | weed inhibition rate (Monochoria vaginalis [7]) | inhibition at 75 g/ha (Monochoria vaginalis [8])

CC(C)[C@]12C[C@@H](OCc3cccc(Cl)c3)[C@](C)(C[C@@H]1Br)O2 [1-692, (1S,2R,4R,5S)-5-bromo-2-[(3-chlorophenyl)methoxy]-1-methyl-4-isopropyl-7-oxabicyclo[2.2.1]heptane]
≥ 80%: inhibition at 1200 g/ha (Echinochloa crus-galli [1]) | inhibition at 1200 g/ha (Digitaria ciliaris [2]) | inhibition at 1200 g/ha [3] | inhibition at 1200 g/ha (Monochoria vaginalis [4]) | inhibition at 1200 g/ha (Scirpus juncoides) | pest or weed control at 1200 g/ha (Monochoria vaginalis [7])

Cc1cccc(CO[C@@H]2C[C@]3(C(C)C)O[C@@]2(C)C[C@@H]3Br)c1 [1-680, (1S,2R,4R,5S)-5-bromo-1-methyl-2-[(3-methylphenyl)methoxy]-4-isopropyl-7-oxabicyclo[2.2.1]heptane]
≥ 80%: inhibition at 1200 g/ha (Echinochloa crus-galli [1]) | inhibition at 1200 g/ha (Digitaria ciliaris [2]) | inhibition at 1200 g/ha [3] | inhibition at 1200 g/ha (Monochoria vaginalis [4]) | inhibition at 1200 g/ha (Scirpus juncoides) | inhibition at 75 g/ha (Echinochloa crus-galli [5]) | pest or weed control at 1200 g/ha (Monochoria vaginalis [7])

CC(C)[C@]12C[C@@H](OCc3c(Cl)cccc3Cl)[C@](C)(C[C@@H]1Br)O2 [1-712, (1S,2R,4R,5S)-5-bromo-2-[(2,6-dichlorophenyl)methoxy]-1-methyl-4-isopropyl-7-oxabicyclo[2.2.1]heptane]
≥ 80%: inhibition at 1200 g/ha (Echinochloa crus-galli [1]) | inhibition at 1200 g/ha (Digitaria ciliaris [2]) | inhibition at 1200 g/ha [3] | inhibition at 1200 g/ha (Monochoria vaginalis [4]) | inhibition at 1200 g/ha (Scirpus juncoides) | inhibition at 75 g/ha (Echinochloa crus-galli [5]) | pest or weed control at 1200 g/ha (Monochoria vaginalis [7]) | inhibition at 75 g/ha (Monochoria vaginalis [8])

Cc1cccc(C)c1CO[C@@H]1C[C@]2(C(C)C)O[C@@]1(C)CC2=O [2-5, (1R,4S,5R)-5-((2,6-dimethylbenzyl)oxy)-1-isopropyl-4-methyl-7-oxabicyclo[2.2.1]heptan-2-one]
≥ 80%: inhibition at 1200 g/ha (Echinochloa crus-galli [1]) | inhibition at 1200 g/ha (Digitaria ciliaris [2]) | inhibition at 1200 g/ha [3] | inhibition at 1200 g/ha (Monochoria vaginalis [4]) | inhibition at 75 g/ha (Echinochloa crus-galli [5]) | inhibition at 75 g/ha (Digitaria ciliaris [6]) | pest or weed control at 1200 g/ha (Monochoria vaginalis [7])

CC(C)[C@]12C[C@@H](OCc3ccc(Cl)cc3Cl)[C@](C)(C[C@@H]1Br)O2 [1-717, (1S,2R,4R,5S)-5-bromo-2-[(2,4-dichlorophenyl)methoxy]-1-methyl-4-isopropyl-7-oxabicyclo[2.2.1]heptane]
≥ 80%: inhibition at 1200 g/ha (Echinochloa crus-galli [1]) | inhibition at 1200 g/ha (Digitaria ciliaris [2]) | inhibition at 1200 g/ha [3] | inhibition at 1200 g/ha (Monochoria vaginalis [4]) | inhibition at 1200 g/ha (Scirpus juncoides) | inhibition at 75 g/ha (Echinochloa crus-galli [5]) | inhibition at 75 g/ha (Digitaria ciliaris [6]) | pest or weed control at 1200 g/ha (Monochoria vaginalis [7])

COC1(OC)C[C@]2(C)O[C@@]1(C(C)C)C[C@H]2OCc1ccccc1F [1-935, (1R,4S,5R)-5-((2-fluorobenzyl)oxy)-1-isopropyl-2,2-dimethoxy-4-methyl-7-oxabicyclo[2.2.1]heptane]
≥ 80%: inhibition at 1200 g/ha (Echinochloa crus-galli [1]) | inhibition at 1200 g/ha (Digitaria ciliaris [2]) | inhibition at 1200 g/ha [3] | inhibition at 1200 g/ha (Monochoria vaginalis [4]) | inhibition at 1200 g/ha (Scirpus juncoides) | pest or weed control at 1200 g/ha (Monochoria vaginalis [7])

Cc1ccccc1CO[C@@H]1C[C@]2(C(C)C)O[C@@]1(C)C[C@@H]2Br [1-16, (1S,2R,4R,5S)-5-bromo-1-methyl-2-[(2-methylphenyl)methoxy]-4-isopropyl-7-oxabicyclo[2.2.1]heptane]
≥ 80%: inhibition at 1200 g/ha (Echinochloa crus-galli [1]) | inhibition at 1200 g/ha (Digitaria ciliaris [2]) | inhibition at 1200 g/ha [3] | inhibition at 75 g/ha (Echinochloa crus-galli [5]) | inhibition at 75 g/ha (Digitaria ciliaris [6]) | pest or weed control at 1200 g/ha (Monochoria vaginalis [7])

CC(C)[C@]12C[C@@H](OCc3ccc(Cl)cc3)[C@](C)(C[C@@H]1Br)O2 [1-693, (1S,2R,4R,5S)-5-bromo-2-[(4-chlorophenyl)methoxy]-1-methyl-4-isopropyl-7-oxabicyclo[2.2.1]heptane]
≥ 80%: inhibition at 1200 g/ha (Echinochloa crus-galli [1]) | inhibition at 1200 g/ha (Digitaria ciliaris [2]) | inhibition at 1200 g/ha [3] | inhibition at 1200 g/ha (Monochoria vaginalis [4]) | inhibition at 1200 g/ha (Scirpus juncoides) | inhibition at 75 g/ha (Echinochloa crus-galli [5]) | pest or weed control at 1200 g/ha (Monochoria vaginalis [7])

CC(C)[C@]12C[C@@H](OCc3cccc(F)c3F)[C@](C)(CC1=O)O2 [2-14, (1R,4S,5R)-5-((2,3-difluorobenzyl)oxy)-1-isopropyl-4-methyl-7-oxabicyclo[2.2.1]heptan-2-one]
≥ 80%: inhibition at 1200 g/ha (Echinochloa crus-galli [1]) | inhibition at 1200 g/ha (Digitaria ciliaris [2]) | inhibition at 1200 g/ha [3] | inhibition at 75 g/ha (Echinochloa crus-galli [5]) | inhibition at 75 g/ha (Digitaria ciliaris [6]) | pest or weed control at 1200 g/ha (Monochoria vaginalis [7])

CC(C)[C@]12C[C@@H](OCc3cc(F)ccc3F)[C@](C)(CC1=O)O2 [2-18, (1R,4S,5R)-5-((2,5-difluorobenzyl)oxy)-1-isopropyl-4-methyl-7-oxabicyclo[2.2.1]heptan-2-one]
≥ 80%: inhibition at 1200 g/ha (Echinochloa crus-galli [1]) | inhibition at 1200 g/ha (Digitaria ciliaris [2]) | inhibition at 1200 g/ha [3] | inhibition at 1200 g/ha (Monochoria vaginalis [4]) | inhibition at 1200 g/ha (Scirpus juncoides) | inhibition at 75 g/ha (Echinochloa crus-galli [5]) | inhibition at 75 g/ha (Digitaria ciliaris [6])

Cc1ccccc1CO[C@@H]1C[C@]2(C(C)C)O[C@@]1(C)C[C@@H]2I [1-741, (1S,2R,4R,5S)-5-iodo-1-methyl-2-[(2-methylphenyl)methoxy]-4-isopropyl-7-oxabicyclo[2.2.1]heptane]
≥ 80%: inhibition at 1200 g/ha (Echinochloa crus-galli [1]) | inhibition at 1200 g/ha (Digitaria ciliaris [2]) | inhibition at 1200 g/ha [3] | inhibition at 1200 g/ha (Monochoria vaginalis [4]) | inhibition at 1200 g/ha (Scirpus juncoides) | inhibition at 75 g/ha (Echinochloa crus-galli [5]) | inhibition at 75 g/ha (Digitaria ciliaris [6]) | pest or weed control at 1200 g/ha (Monochoria vaginalis [7])

Cc1cccc(C)c1CO[C@@H]1C[C@@]2(C(C)C)C=C[C@]1(C)O2 [3-3, (1R,4S,5R)-5-[(2,6-dimethylphenyl)methoxy]-4-methyl-1-isopropyl-7-oxabicyclo[2.2.1]hept-2-ene]
≥ 80%: inhibition at 1200 g/ha (Echinochloa crus-galli [1]) | inhibition at 1200 g/ha (Digitaria ciliaris [2]) | inhibition at 1200 g/ha [3] | inhibition at 1200 g/ha (Scirpus juncoides) | pest or weed control at 1200 g/ha (Monochoria vaginalis [7])

CC(C)[C@]12C[C@@H](OCc3c(Cl)cccc3Cl)[C@](C)(CC1=O)O2 [2-26, (1R,4S,5R)-5-((2,6-dichlorobenzyl)oxy)-1-isopropyl-4-methyl-7-oxabicyclo[2.2.1]heptan-2-one]
≥ 80%: inhibition at 1200 g/ha (Echinochloa crus-galli [1]) | inhibition at 1200 g/ha (Digitaria ciliaris [2]) | inhibition at 1200 g/ha [3] | inhibition at 75 g/ha (Digitaria ciliaris [6]) | pest or weed control at 1200 g/ha (Monochoria vaginalis [7])

CC(C)[C@]12C[C@@H](OCc3ccccc3F)[C@](C)(C[C@@H]1OCC1CC1)O2 [1-1603, (1S,2R,4R,5S)-5-(cyclopropylmethoxy)-2-[(2-fluorophenyl)methoxy]-1-methyl-4-isopropyl-7-oxabicyclo[2.2.1]heptane]
≥ 80%: inhibition at 1200 g/ha (Echinochloa crus-galli [1]) | inhibition at 1200 g/ha (Digitaria ciliaris [2]) | inhibition at 1200 g/ha [3] | inhibition at 1200 g/ha (Monochoria vaginalis [4]) | inhibition at 1200 g/ha (Scirpus juncoides) | inhibition at 75 g/ha (Echinochloa crus-galli [5]) | inhibition at 75 g/ha (Digitaria ciliaris [6]) | pest or weed control at 1200 g/ha (Monochoria vaginalis [7])
